Laboratory results as given in ChEMBL document CHEMBL5724914, “Linking interpersonal differences in gut microbiota composition and drug biotransformation activity” (2024).

Key:
[1] = human gut metagenome, 24 h, 2 µM
[2] = human gut metagenome, 24 h, 2 µM; remark: listed apart in the source
[3] = (§1) The drug is tested on Z-004 corresponding to metagenome with ENA study accession number: PRJEB37062 and ENA sample accession number: ERS12561804 for biotransformation under anaerobic condition. The drug concentrations were measured over 9 timepoints collected between 0 and 24 hours of incubation by liquid-chromatography-coupled mass spectrometry (LC–MS); conditions: 2 µM
[4] = (§2) The drug is tested on Z-028 corresponding to mouse gut metagenome with ENA study accession number: PRJEB37062 and ENA sample accession number: ERS12561827 for biotransformation under anaerobic condition. The drug concentrations were measured over 9 timepoints collected between 0 and 24 hours of incubation by liquid-chromatography-coupled mass spectrometry (LC–MS); conditions: 2 µM
[5] = human gut metagenome, 24 h, 2 µM; remark: listed apart in the source
[6] = as §2, with “WLS-038” for “Z-028”, “human” for “mouse”, “ERS12561745” for “ERS12561827”; conditions: 2 µM
[7] = human gut metagenome, 24 h, 2 µM; remark: listed apart in the source
[8] = as §2, with “Z-025” for “Z-028”, “rabbit” for “mouse”, “ERS12561824” for “ERS12561827”; conditions: 2 µM
[9] = human gut metagenome, 24 h, 2 µM; remark: listed apart in the source
[10] = as §2, with “Z-013” for “Z-028”, “rabbit” for “mouse”, “ERS12561813” for “ERS12561827”; conditions: 2 µM
[11] = as §2, with “Z-006” for “Z-028”, “ERS12561806” for “ERS12561827”; conditions: 2 µM
[12] = human gut metagenome, 24 h, 2 µM; remark: listed apart in the source
[13] = as §2, with “Z-011” for “Z-028”, “ERS12561811” for “ERS12561827”; conditions: 2 µM
[14] = as §2, with “WLS-086” for “Z-028”, “human” for “mouse”, “ERS12561752” for “ERS12561827”; conditions: 2 µM
[15] = as §2, with “Z-017” for “Z-028”, “ERS12561816” for “ERS12561827”; conditions: 2 µM
[16] = as §2, with “Z-022” for “Z-028”, “ERS12561821” for “ERS12561827”; conditions: 2 µM
[17] = as §1, with “Z-012” for “Z-004”, “ERS12561812” for “ERS12561804”; conditions: 2 µM
[18] = as §2, with “WLS-310” for “Z-028”, “human” for “mouse”, “ERS12561785” for “ERS12561827”; conditions: 2 µM
[19] = human gut metagenome, 24 h, 2 µM; remark: listed apart in the source
[20] = as §2, with “WLS-240” for “Z-028”, “human” for “mouse”, “ERS12561773” for “ERS12561827”; conditions: 2 µM
Further: call rule not given here.

Structure (SMILES)	Bacterial Biotransformation [1]	Bacterial Biotransformation [2]	Bacterial Biotransformation [3]	Bacterial Biotransformation [4]	Bacterial Biotransformation [5]	Bacterial Biotransformation [6]	Bacterial Biotransformation [7]	Bacterial Biotransformation [8]	Bacterial Biotransformation [9]	Bacterial Biotransformation [10]	Bacterial Biotransformation [11]	Bacterial Biotransformation [12]	Bacterial Biotransformation [13]	Bacterial Biotransformation [14]	Bacterial Biotransformation [15]	Bacterial Biotransformation [16]	Bacterial Biotransformation [17]	Bacterial Biotransformation [18]	Bacterial Biotransformation [19]	Bacterial Biotransformation [20]
C[C@@H](c1ncncc1F)[C@](O)(Cn1cncn1)c1ccc(F)cc1F [VORICONAZOLE]	Compound metabolized	Compound metabolized	Compound NOT metabolized	Compound NOT metabolized	Compound metabolized	Compound metabolized	Compound metabolized	Compound NOT metabolized	Compound metabolized	Compound NOT metabolized	Compound NOT metabolized	Compound metabolized	Compound NOT metabolized	Compound metabolized	Compound NOT metabolized	Compound metabolized	Compound metabolized	Compound metabolized	Compound metabolized	Compound metabolized
CC(CCc1ccccc1)NCC(O)c1ccc(O)c(C(N)=O)c1 (stereo not given) [LABETALOL]	Compound metabolized	Compound NOT metabolized	Compound NOT metabolized	Compound NOT metabolized	Compound NOT metabolized	Compound NOT metabolized	Compound NOT metabolized	Compound metabolized	Compound NOT metabolized	Compound NOT metabolized	Compound NOT metabolized	Compound NOT metabolized	Compound NOT metabolized	Compound metabolized	Compound NOT metabolized	Compound metabolized	Compound NOT metabolized	Compound NOT metabolized	Compound NOT metabolized	Compound metabolized
O=C(NC(Cc1cc(=O)[nH]c2ccccc12)C(=O)O)c1ccc(Cl)cc1 (stereo not given) [REBAMIPIDE]	Compound NOT metabolized	Compound NOT metabolized	Compound NOT metabolized	Compound NOT metabolized	Compound NOT metabolized	Compound NOT metabolized	Compound NOT metabolized	Compound NOT metabolized	Compound NOT metabolized	Compound NOT metabolized	Compound NOT metabolized	Compound metabolized	Compound NOT metabolized	Compound metabolized	Compound NOT metabolized	Compound NOT metabolized	Compound NOT metabolized	Compound NOT metabolized	Compound NOT metabolized	Compound NOT metabolized
OC(c1cc(C(F)(F)F)nc2c(C(F)(F)F)cccc12)C1CCCCN1 (stereo not given) [MEFLOQUINE]	Compound metabolized	Compound metabolized	Compound NOT metabolized	Compound NOT metabolized	Compound metabolized	Compound metabolized	Compound metabolized	Compound NOT metabolized	Compound metabolized	Compound NOT metabolized	Compound NOT metabolized	Compound NOT metabolized	Compound metabolized	Compound metabolized	Compound NOT metabolized	Compound metabolized	Compound NOT metabolized	Compound metabolized	Compound metabolized	Compound metabolized
COc1cc2nc(N3CCN(C(=O)C4COc5ccccc5O4)CC3)nc(N)c2cc1OC.CS(=O)(=O)O (stereo not given) [DOXAZOSIN MESYLATE]	Compound metabolized	Compound metabolized	Compound NOT metabolized	Compound NOT metabolized	Compound NOT metabolized	Compound metabolized	Compound NOT metabolized	Compound NOT metabolized	Compound metabolized	Compound metabolized	Compound NOT metabolized	Compound NOT metabolized	Compound NOT metabolized	Compound metabolized	Compound NOT metabolized	Compound metabolized	Compound NOT metabolized	Compound metabolized	Compound metabolized	Compound metabolized
COc1ccccc1OCCNCC(O)COc1cccc2[nH]c3ccccc3c12 (stereo not given) [CARVEDILOL]	Compound metabolized	Compound metabolized	Compound NOT metabolized	Compound NOT metabolized	Compound NOT metabolized	Compound metabolized	Compound metabolized	Compound metabolized	Compound metabolized	Compound NOT metabolized	Compound NOT metabolized	Compound metabolized	Compound NOT metabolized	Compound metabolized	Compound NOT metabolized	Compound NOT metabolized	Compound NOT metabolized	Compound metabolized	Compound metabolized	Compound metabolized
c1ccc2[nH]c(-c3cscn3)nc2c1 [THIABENDAZOLE]	Compound NOT metabolized	Compound NOT metabolized	Compound NOT metabolized	Compound NOT metabolized	Compound NOT metabolized	Compound NOT metabolized	Compound NOT metabolized	Compound NOT metabolized	Compound NOT metabolized	Compound NOT metabolized	Compound NOT metabolized	Compound NOT metabolized	Compound NOT metabolized	Compound metabolized	Compound NOT metabolized	Compound NOT metabolized	Compound NOT metabolized	Compound NOT metabolized	Compound NOT metabolized	Compound metabolized
C[N+]12CCC(CC1)C(OC(=O)C(O)(c1ccccc1)c1ccccc1)C2.[Br-] (stereo not given) [CLIDINIUM BROMIDE]	Compound metabolized	Compound metabolized	Compound NOT metabolized	Compound NOT metabolized	Compound NOT metabolized	Compound NOT metabolized	Compound NOT metabolized	Compound NOT metabolized	Compound metabolized	Compound NOT metabolized	Compound NOT metabolized	Compound NOT metabolized	Compound NOT metabolized	Compound metabolized	Compound NOT metabolized	Compound NOT metabolized	Compound NOT metabolized	Compound NOT metabolized	Compound metabolized	Compound metabolized
